Source: patent US20240000767A1, “COMBINATION OF AN ALPHA2-ADRENOCEPTOR SUBTYPE C (ALPHA-2C) ANTAGONIST WITH A TASK1/3 CHANNEL BLOCKER FOR THE TREATMENT OF SLEEP APNEA” (Bayer Aktiengesellschaft, priority 2020, published 2024)

molecular target: human ADRA2C receptor (Homo sapiens (Human), UniProt P18825); assay: In vitro activity assay to determine the inhibition of recombinant ADRA2C (CHO-K1 cells, aequorin bioluminescence); type: cell-based; conditions: inhibition of noradrenaline-induced bioluminescence signal; some mean values from multiple determinations; read-out: ARα2C IC50
Sequence (P18825 whole entry): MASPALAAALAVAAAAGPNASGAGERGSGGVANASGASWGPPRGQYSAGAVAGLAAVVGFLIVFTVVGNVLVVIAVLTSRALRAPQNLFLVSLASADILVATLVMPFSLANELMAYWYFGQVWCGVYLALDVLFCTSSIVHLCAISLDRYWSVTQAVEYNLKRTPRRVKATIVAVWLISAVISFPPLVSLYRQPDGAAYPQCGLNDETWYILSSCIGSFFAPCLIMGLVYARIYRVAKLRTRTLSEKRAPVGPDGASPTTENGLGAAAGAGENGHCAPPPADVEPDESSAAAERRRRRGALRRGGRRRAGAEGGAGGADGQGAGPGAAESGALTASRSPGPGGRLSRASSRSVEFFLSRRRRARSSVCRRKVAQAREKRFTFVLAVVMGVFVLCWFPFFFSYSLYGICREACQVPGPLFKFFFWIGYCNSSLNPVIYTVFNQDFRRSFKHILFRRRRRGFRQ
Method: B-2. In Vitro Activity Assay to Determine the Inhibition of Recombinant ADRA2C
The human ADRA2C receptor belongs to the G protein(guanine-dependent protein)-coupled receptors, the main function of which is the transduction of signals into the interior of the cell.
The investigations of the inhibition of the recombinant human ADRA2C receptors were carried out with stabily transfected CHO-K1 cells coexpressing the Gaq protein and the calcium-sensitive photoprotein aequorin. In this recombinant system, binding of the agonists noradrenaline to the ADRA2C receptor leads, after activation of a signal cascade, to calcium release from intracellular stores, which is detected by the intracellular calcium sensor aequorin as a bioluminescent signal. The method is described in detail in the reference below. [Wunder F., Kalthof B., Muller T., Hueser J. Functional Cell-Based Assays in Microliter Volumes for Ultra-High Throughput Screening. Combinatorial Chemistry & High Throughput Screening, Volume 11, Number 7, 2008, pp. 495-504(10). doi.org/10.2174/138620708785204054]
The activity of the test substances was determined via their ability to inhibit the agonist-induced increase of the bioluminescence signal. The concentration which can block half of this signal increase is referred to as IC50. The IC50 value is calculated using the 4 parameter logistic function (Hill function):
Top=upper threshold, Bottom=lower threshold, Slope=slope, IC50=turning point

Question: Which IC50 does the source give for C[C@@H]1CCCN(C2CCN(c3ncc(C(=O)NCc4cc(Cl)ccc4F)s3)CC2)C1 [Example 21, N-(5-Chloro-2-fluorobenzyl)-2-[(3R)-3-methyl[1,4′-bipiperidin]-1′-yl]-1,3-thiazole-5-carboxamide] here?
Answer: 7.2 nM

Question: Which IC50 does the source give for C[C@@H]1CCCN(C2CCN(c3ncc(C(=O)NCc4ccc(C(F)(F)F)cc4)s3)CC2)C1 [Example 22, 2-[(3R)-3-Methyl[1,4′-bipiperidin]-1′-yl]-N-[4-(trifluoromethyl)benzyl]-1,3-thiazole-5-carboxamide] here?
Answer: 640 nM

Question: Which IC50 does the source give for C[C@@H]1CCCN(C2CCN(c3ncc(C(=O)NCc4ncc(Cl)cc4F)s3)CC2)C1 [Example 23, N-[(5-chloro-3-fluoropyridin-2-yl)methyl]-2-[(3R)-3-methyl[1,4′-bipiperidin]-1′-yl]-1,3-thiazole-5-carboxamide] here?
Answer: 17 nM

Question: For Cc1cccnc1CNC(=O)c1cnc(N2CCC(N3CCC[C@@H](C)C3)CC2)s1 [Example 24, 2-[(3R)-3-methyl[1,4′-bipiperidin]-1′-yl]-N-[(3-methylpyridin-2-yl)methyl]-1,3-thiazole-5-carboxamide], which IC50 is on record?
Answer: 1060 nM

Question: With Cc1ccnc(CNC(=O)c2cnc(N3CCC(N4CCC[C@@H](C)C4)CC3)s2)c1 [Example 25, 2-[(3R)-3-methyl[1,4′-bipiperidin]-1′-yl]-N-[(4-methylpyridin-2-yl)methyl]-1,3-thiazole-5-carboxamide] as the compound, how does the IC50 read?
Answer: 2400 nM

Question: For C[C@@H]1CCCN(C2CCN(c3ncc(C(=O)NCc4ncccc4Cl)s3)CC2)C1 [Example 26, N-[(3-chloropyridin-2-yl)methyl]-2-[(3R)-3-methyl[1,4′-bipiperidin]-1′-yl]-1,3-thiazole-5-carboxamide], which IC50 is on record?
Answer: 280 nM

Question: How did the IC50 turn out when C[C@@H]1CCCN(C2CCN(c3ncc(C(=O)N(C)Cc4ncccc4F)s3)CC2)C1 [Example 27, N-[(3-fluoropyridin-2-yl)methyl]-N-methyl-2-[(3R)-3-methyl[1,4′-bipiperidin]-1′-yl]-1,3-thiazole-5-carboxamide] was run?
Answer: 310 nM

Question: For C[C@@H]1CCCN(C2CCN(c3ncc(C(=O)NCc4cccc(C(F)(F)F)n4)s3)CC2)C1 [Example 28, 2-[(3R)-3-methyl[1,4′-bipiperidin]-1′-yl]-N-{[6-(trifluoromethyl)pyridin-2-yl]methyl}-1,3-thiazole-5-carboxamide], which IC50 is on record?
Answer: 890 nM

Question: For C[C@@H]1CCCN(C2CCN(c3ncc(C(=O)NCc4ccc(Cl)cn4)s3)CC2)C1 [Example 29, N-[(5-chloropyridin-2-yl)methyl]-2-[(3R)-3-methyl[1,4′-bipiperidin]-1′-yl]-1,3-thiazole-5-carboxamide], which IC50 is on record?
Answer: 96 nM

Question: How did the IC50 turn out when C[C@@H]1CCCN(C2CCN(c3ncc(C(=O)NCc4ncc(F)cc4Cl)s3)CC2)C1 [Example 31, N-[(3-chloro-5-fluoropyridin-2-yl)methyl]-2-[(3R)-3-methyl[1,4′-bipiperidin]-1′-yl]-1,3-thiazole-5-carboxamide] was run?
Answer: 89 nM

Question: How did the IC50 turn out when C[C@@H]1CCCN(C2CCN(c3ncc(C(=O)NCc4cccc(OC(F)(F)F)n4)s3)CC2)C1 [Example 32, 2-[(3R)-3-methyl[1,4′-bipiperidin]-1′-yl]-N-{[6-(trifluoromethoxy)pyridin-2-yl]methyl}-1,3-thiazole-5-carboxamide] was run?
Answer: 640 nM

Question: With C[C@@H]1CCCN(C2CCN(c3ncc(C(=O)NCc4ccc(Cl)cc4)s3)CC2)C1 [Example 33, N-(4-chlorobenzyl)-2-[(3R)-3-methyl[1,4′-bipiperidin]-1′-yl]-1,3-thiazole-5-carboxamide] as the compound, how does the IC50 read?
Answer: 15 nM

Question: C[C@@H]1CCCN(C2CCN(c3ncc(C(=O)NCc4cc(F)ccc4Cl)s3)CC2)C1 [Example 34, N-(2-chloro-5-fluorobenzyl)-2-[(3R)-3-methyl[1,4′-bipiperidin]-1′-yl]-1,3-thiazole-5-carboxamide] was tested. Which IC50 did it give?
Answer: 640 nM

Question: How did the IC50 turn out when Cc1ccc(CNC(=O)c2cnc(N3CCC(N4CCC[C@@H](C)C4)CC3)s2)cc1 [Example 35, N-(4-methylbenzyl)-2-[(3R)-3-methyl[1,4′-bipiperidin]-1′-yl]-1,3-thiazole-5-carboxamide] was run?
Answer: 1000 nM
